Measurements as given in patent US20240166626A1, “Compounds and Methods for Preventing, Treating, or Ameliorating Airway Disease” (THOMAS JEFFERSON UNIVERSITY, priority 2021, published 2024).

Molecular target: β2AR (Homo sapiens, UniProt P07550)
Experiment: cAMP measurement by ELISA in HEK 293 cells stably overexpressing β2AR
Type: cell-based
Method: Schematic of screening methodologies for cAMP production and β-arrestin binding. Cells were treated with the unbiased beta-agonist isoproterenol (ISO)±test compounds. The primary high throughput screen utilized a luciferase-based cAMP biosensor, GLOSENSORTM (Promega), and an enzyme complementation-based assay, […]® (DiscoveRx). Independent secondary screening utilized a cAMP ELISA and BRET for β-arrestin recruitment. […] Secondary screen for cAMP production by ELISA. […] Cells were lysed and cAMP production was measured. […] Dose response curve for DFPQ as measured by BRET. […] Data for dose response curve was taken 12 min post ISO addition. n=3. […] Cells were lysed and cAMP production was measured by ELISA. […] Cells were read every three minutes for 18 minutes on a PolarStar Optima plate reader (BMG) to establish peak signal. […] Luminescence was determined at room temperature (23-25° C.) on a PolarStar Optima plate reader (BMG). […] Relative assay bias was calculated from the ratio of normalized cAMP and arrestin recruitment responses. […] BRET was measured using a Tecan Infinite F500 microplate reader. […] Bound [35 S]GTPγS was collected by rapid filtration on GF/B filters, washed 4 times with 4 ml of cold GTPγS wash buffer and analyzed by liquid scintillation counting. […] Immunoprecipitated proteins were separated by SDS-PAGE and analyzed by western blot using a β2AR C-terminal tail or phospho-specific antibody. […]

Chain of β2AR (P07550 whole entry): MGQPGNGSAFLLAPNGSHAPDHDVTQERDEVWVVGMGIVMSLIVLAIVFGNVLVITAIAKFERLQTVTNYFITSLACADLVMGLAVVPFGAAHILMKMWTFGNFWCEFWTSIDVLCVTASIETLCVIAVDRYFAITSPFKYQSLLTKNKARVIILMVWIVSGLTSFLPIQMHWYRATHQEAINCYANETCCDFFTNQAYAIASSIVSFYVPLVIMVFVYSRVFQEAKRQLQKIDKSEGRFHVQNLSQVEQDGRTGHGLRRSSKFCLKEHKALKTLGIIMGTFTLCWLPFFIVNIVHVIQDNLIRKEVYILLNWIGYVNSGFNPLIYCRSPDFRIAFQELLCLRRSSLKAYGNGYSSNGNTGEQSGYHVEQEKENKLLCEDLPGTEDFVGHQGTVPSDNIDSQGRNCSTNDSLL

Fc1ccc(Nc2nc(NC3CCCCC3)c3ccccc3n2)cc1F [DFPQ, N^4-cyclohexyl-N^2-(3,4-difluorophenyl)quinazoline-2,4-diamine]
effect on ISO-stimulated cAMP production (10 μM DFPQ, 1 μM ISO 10 min, FIG. 1B): no effect | effect on ISO dose response curves, cAMP production readout (increasing concentrations up to 10 μM DFPQ, FIG. 1E): no effect
